Data reported in PubChem BioAssay AID437 (SGCStoCompounds, 2006).

Molecular target: Inositol-trisphosphate 3-kinase C (Homo sapiens) (UniProt Q96DU7)
Experiment: IP3 3-kinase C ligand binding via Tm shift – biophysical, DSF, SYPRO orange, purified human protein (AID 437)
Conditions: DSF thermal shift, at 20 µM, protein 5.9 µM, buffer 300 mM NaCl, 50 mM Hepes, 10% glycerol, 2 mM TCEP pH 7.5, stronger effect = higher value

Inositol-trisphosphate 3-kinase C (Homo sapiens), sequence (Q96DU7 whole entry, looked up): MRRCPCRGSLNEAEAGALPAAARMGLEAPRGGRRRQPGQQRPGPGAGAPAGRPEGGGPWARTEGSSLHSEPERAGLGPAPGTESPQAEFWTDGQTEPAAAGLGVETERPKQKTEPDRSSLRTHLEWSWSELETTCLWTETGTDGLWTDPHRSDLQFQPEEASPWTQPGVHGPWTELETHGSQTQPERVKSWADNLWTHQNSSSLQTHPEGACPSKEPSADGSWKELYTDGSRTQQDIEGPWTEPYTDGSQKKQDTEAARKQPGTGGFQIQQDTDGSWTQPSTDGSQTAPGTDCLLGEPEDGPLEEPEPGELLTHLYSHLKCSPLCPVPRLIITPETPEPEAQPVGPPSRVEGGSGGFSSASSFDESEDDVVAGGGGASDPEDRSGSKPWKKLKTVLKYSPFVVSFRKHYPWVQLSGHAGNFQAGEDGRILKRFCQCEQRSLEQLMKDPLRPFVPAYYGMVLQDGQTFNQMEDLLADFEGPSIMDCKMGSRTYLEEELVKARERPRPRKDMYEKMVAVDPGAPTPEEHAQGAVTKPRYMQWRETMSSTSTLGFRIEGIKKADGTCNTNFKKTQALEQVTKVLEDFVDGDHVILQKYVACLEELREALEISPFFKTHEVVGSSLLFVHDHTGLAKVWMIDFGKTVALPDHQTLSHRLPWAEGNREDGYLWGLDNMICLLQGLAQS

Compound	Tm shift
Nc1ncnc2c1C(I)CN2[C@@H]1O[C@H](CO)C(O)C1O (some centres not stated)	4.7 Celsius
Brc1c(Br)c(Br)c2n[nH]nc2c1Br	4.6 Celsius
O=c1c(-c2ccc(O)cc2)coc2cc(O)cc(O)c12	3.3 Celsius
O=C1Cc2c([nH]c3ccc(Br)cc23)-c2ccccc2N1	3.1 Celsius
O=C1c2c(O)cc(O)cc2OC(c2ccc(O)c(O)c2)C1O (configuration not stated)	13.3 Celsius
CCOc1cc(/C=C(\C#N)CON)cc(CSc2ccccc2)c1O	4.2 Celsius
COC1=CC(/C=C/C(=O)CC(=O)/C=C/c2ccc(O)c(OC)c2)=CCC1O (configuration not stated)	6.6 Celsius
NC1=N/C(=C2/CCNC(=O)c3[nH]c(Br)cc32)C(=O)N1	3 Celsius
CC(C)(C)c1nc2c3cc[nH]c(=O)c3c3cc(F)ccc3c2[nH]1	3.3 Celsius
NC1=CC2N=CN=C(Nc3cccc(Br)c3)C2C=C1N (configuration not stated)	5.2 Celsius
C=S(C)c1ccc(CSc2nc(-c3ccc(F)cc3)c(-c3ccncc3)[nH]2)cc1 (configuration not stated)	5.6 Celsius
O=C1Nc2ccc(I)cc2/C1=C/c1cc(Br)c(O)c(Br)c1	10.4 Celsius
NC(O)(O)c1ccc(N=Nc2c(O)[nH]c3ccc(Cl)cc23)cc1	3.7 Celsius
CNC(=O)c1cc(Oc2ccc(NC(=O)Nc3ccc(C)c(C(F)(F)F)c3)cc2)ccn1	5.7 Celsius
CN(C)S(O)(O)c1ccc2c(c1)/C(=C/c1cc3c([nH]1)CCCC3)C(=O)N2	3.2 Celsius
Oc1ccc(-c2nc(-c3ccc(F)cc3)c(-c3ccncc3)[nH]2)cc1	4.4 Celsius
O=c1c2ccccc2[nH]c(=S)n1CCN1CCC(=C(c2ccc(F)cc2)c2ccc(F)cc2)CC1	6.4 Celsius
